Experimental data as given in paper PMC8838521, “Antimicrobial, Cytotoxic and Mutagenic Activity of Gemini QAS Derivatives of 1,4:3,6-Dianhydro-L-iditol” (Molecules, 2022).
Values joined by “and” are separate entries in the source; they are usually repeats but may differ in a detail not shown here. Equal entries are not always repeated. Where two headings read alike, the source gives them in different places.

Experiments:
Type in all cases: cell-based
[1] = tested on: Candida glabrata DSMZ 11226; experiment: Antimicrobial activity, microdilution MIC, C. glabrata; details: Nakaseomyces glabratus, DSMZ11226, 24 h, MIC90, 24 h, RPMI; read-out: MIC C. glabrata DSMZ 11226
Procedure: (§1) The antimicrobial potential of the tested agents was evaluated against two reference strains of bacteria: Staphylococcus aureus ATCC 25923 and Escherichia coli K12, two reference strains of pathogenic yeasts, Candida albicans ATCC10231 and Candida glabrata DSMZ11226, as well as 20 strains of clinical isolates of S. aureus collected from patients with skin and soft tissue infections (n = 8) and strains derived from subclinical bovine mastitis milk samples (n = 12). Four of these strains, two isolated from human infections and two isolated from bovine mastitis, were classified as MRSA (Methicillin-resistant Staphylococcus aureus). All of them were mecA positive and their methicillin resistance was confirmed with the disc diffusion assay. The remaining 16 strains were MSSA (Methicillin-sensitive Staphylococcus aureus). The assays were performed using a serial, two-fold dilution method in 96-well microtiter plates under conditions recommended by the Clinical and Laboratory Standards Institute (CLSI, Pittsburgh, PA, USA). The aim of this procedure was the determination of the MIC parameter (Minimum Inhibitory Concentration)—the minimum concentration of a tested agent capable to inhibit the growth of a specified strain of microorganism. The agents were solubilized in deionized, sterile water to a final concentration of […]. Subsequently, solutions were mixed (1:1 (v/v)) with 2 × concentrated liquid medium, Mueller-Hinton Broth 2—cation adjusted (MHB2) for evaluation of antibacterial activity and RPMI in the case of evaluation of the antifungal activity. […] Subsequently, the solutions were mixed with MHB2 or RPMI medium to get the final concentration of 8.192 mg/mL (8192 µg/mL). In the next step, the serial, two-fold dilutions of the tested agents (over the range of concentrations from 8192 to 8 µg/mL for reference strains of bacteria and yeasts and from 512 to 1.0 µg/mL for clinical isolates of S. aureus) were prepared in 96-well microtitration plates in the final volume of 100 μL of the appropriate medium.
(§2) The pure cultures of yeast strains were grown on the Sabouraud Dextrose Agar (SDA) for 18–24 h at 37 °C. Suspensions of the microorganisms were prepared by taking one loop of pure culture into sterile water and adjusting optical density to 0.1 at 660 nm and further 50-fold dilution in RPMI 1640 medium resulting in cells concentration of approximate 2 × 10^4 CFU/mL. One hundred μL of that suspension was inoculated to the wells of the microtitration plate containing appropriate dilutions of the agents. The positive growth control of each strain (both bacteria and yeasts) was performed in the wells without the tested substances. The negative control containing only the media was included in each assay. Microtiter plates were incubated at 37 °C for 24 h. Following the incubation period, determination of the MIC values of the tested agents was carried out by measuring the absorbance at 531 nm using a Victor^3 microplate reader (Perkin Elmer, Inc., Waltham, MA, USA). The lowest concentration of the agent causing inhibition of growth equal to or higher than 90% (MIC90) of growth control was taken as the MIC value. Each test was repeated three times.

[2] = tested on: Staphylococcus aureus ATCC 25923; experiment: Antimicrobial activity, microdilution MIC, S. aureus reference strain; details: Staphylococcus aureus, ATCC25923, 24 h, MIC90, 24 h, MHB2; read-out: MIC S. aureus ATCC 25923
Procedure: as §1
(§3) The pure bacterial cultures of (both the reference and clinical strains) were grown on the Mueller-Hinton Agar (MHA) for 18–24 h at 37 °C. A small amount of the biomass of the culture of each strain of microorganisms was suspended in the sterile PBS (phosphate buffered saline, pH 7.4 at 25 °C, purchased from Sigma) solution to get an optical density OD600 = 0.13 (equal to the cells concentration approximately 1 × 10^8 CFU/mL). The obtained suspensions of the cells were next diluted 1:100 (v/v) in the MHB2 medium. One hundred µL of the cells’ suspension was finally loaded into the wells of plates prepared in advance, which contained 100 µL of two-fold dilutions of the tested agents (the final concentration of the bacterial cells in all wells was approximately 5 × 10^5 CFU/mL).
as §2, with “times. […]” for “times.”

[3] = tested on: S. aureus clinical isolates; experiment: Antistaphylococcal activity, microdilution MIC, clinical isolates; details: Staphylococcus aureus
Procedure: as §1, §3
as §2, with “times. […]” for “times.”

[4] = 20 clinical isolates, typical value, read-out: MIC against S. aureus clinical isolates, in general
[5] = isolate 1, human infection, MSSA, read-out: MIC S. aureus isolate 1
[6] = isolate 2, human infection, MSSA, read-out: MIC S. aureus isolate 2
[7] = isolate 3, human infection, MSSA, read-out: MIC S. aureus isolate 3
[8] = isolate 4, human infection, MSSA, read-out: MIC S. aureus isolate 4
[9] = isolate 5, human infection, MSSA, read-out: MIC S. aureus isolate 5
[10] = isolate 6, human infection, MSSA, read-out: MIC S. aureus isolate 6
[11] = isolate 7, human infection, MRSA, read-out: MIC S. aureus isolate 7
[12] = isolate 8, human infection, MRSA, read-out: MIC S. aureus isolate 8
[13] = isolate 9, bovine mastitis, MSSA, read-out: MIC S. aureus isolate 9
[14] = isolate 10, bovine mastitis, MSSA, read-out: MIC S. aureus isolate 10
[15] = isolate 11, bovine mastitis, MSSA, read-out: MIC S. aureus isolate 11
[16] = isolate 12, bovine mastitis, MSSA, read-out: MIC S. aureus isolate 12
[17] = isolate 13, bovine mastitis, MSSA, read-out: MIC S. aureus isolate 13
[18] = isolate 14, bovine mastitis, MSSA, read-out: MIC S. aureus isolate 14
[19] = isolate 15, bovine mastitis, MSSA, read-out: MIC S. aureus isolate 15
[20] = isolate 16, bovine mastitis, MSSA, read-out: MIC S. aureus isolate 16
[21] = isolate 17, bovine mastitis, MSSA, read-out: MIC S. aureus isolate 17
[22] = isolate 18, bovine mastitis, MSSA, read-out: MIC S. aureus isolate 18
[23] = isolate 19, bovine mastitis, MRSA, read-out: MIC S. aureus isolate 19
[24] = isolate 20, bovine mastitis, MRSA, read-out: MIC S. aureus isolate 20

| SMILES | MIC [1] | MIC [2] | MIC [3, 4] [µg/mL] | MIC [3, 5] | MIC [3, 6] | MIC [3, 7] | MIC [3, 8] | MIC [3, 9] | MIC [3, 10] | MIC [3, 11] | MIC [3, 12] | MIC [3, 13] | MIC [3, 14] | MIC [3, 15] | MIC [3, 16] | MIC [3, 17] | MIC [3, 18] | MIC [3, 19] | MIC [3, 20] | MIC [3, 21] | also measured |
| --- | --- | --- | --- | --- | --- | --- | --- | --- | --- | --- | --- | --- | --- | --- | --- | --- | --- | --- | --- | --- | --- |
| CCCCCCCCCC[N+](C)(C)C1COC2C1OCC2[N+](C)(C)CCCCCCCCCC [QAS 10, N,N’-(1,4:3,6-Dianhydro-2,5-dideoxy-L-iditol-2,5-diyl)-bis(N,N-dimethyl-N-decylammonium) Ditrifluoromethanesulfonate] | 16 µg/mL and 20 µM | 8 µg/mL and 10 µM | 8 | 8 µg/mL and 10 µM | 8 µg/mL and 10 µM | 4 µg/mL and 5 µM | 8 µg/mL and 10 µM | 8 µg/mL and 10 µM | 8 µg/mL and 10 µM | 4 µg/mL and 5 µM | 8 µg/mL and 10 µM | 8 µg/mL and 10 µM | 8 µg/mL and 10 µM | 8 µg/mL and 10 µM | 8 µg/mL and 10 µM | 8 µg/mL and 10 µM | 4 µg/mL and 5 µM | 8 µg/mL and 10 µM | 8 µg/mL and 10 µM | 8 µg/mL and 10 µM | MIC [3, 22]: 8 µg/mL and 10 µM; MIC [3, 23]: 8 µg/mL and 10 µM; MIC [3, 24]: 8 µg/mL and 10 µM; MIC ([3]; more susceptible strains among 20 isolates, read-out: MIC of more susceptible S. aureus clinical strains): 4 µg/mL |
| CCCCCCCC[N+](C)(C)C1COC2C1OCC2[N+](C)(C)CCCCCCCC (centres unmarked) [QAS 9] | 1020 µg/mL and 1410 µM | 128 µg/mL and 176 µM | 64 | 64 µg/mL and 88 µM | 64 µg/mL and 88 µM | 64 µg/mL and 88 µM | 128 µg/mL and 176 µM | 64 µg/mL and 88 µM | 64 µg/mL and 88 µM | 64 µg/mL and 88 µM | 64 µg/mL and 88 µM | 64 µg/mL and 88 µM | 64 µg/mL and 88 µM | 64 µg/mL and 88 µM | 64 µg/mL and 88 µM | 64 µg/mL and 88 µM | 64 µg/mL and 88 µM | 64 µg/mL and 88 µM | 64 µg/mL and 88 µM | 64 µg/mL and 88 µM | MIC [3, 22]: 64 µg/mL and 88 µM; MIC [3, 23]: 64 µg/mL and 88 µM; MIC [3, 24]: 64 µg/mL and 88 µM |
